Data: US12329799B2, “Peptidyl inhibitors of calcineurin-NFAT interaction” (Ohio State Innovation Foundation, priority 2018, dated 2025)
Values belong to the molecule of their own block, whether it stands above or below them. Positions of bridges follow the written chain, without caps; N, C: chain ends. Non-standard residues stand in square brackets, D forms with d. Residues, ends and D or L forms follow the SMILES beside them. Chains are numbered I, II in the order given. *: point of attachment. Benzoyl(2,3-Cl2) = O=C(c1cccc(Cl)c1Cl)*; 2Nal = N[C@@H](Cc1ccc2ccccc2c1)C(=O)O; Tle = CC(C)(C)[C@H](N)C(=O)O; AEEA = NCCOCCOCC(=O)O

Assays:
Caco-2 cell monolayers = test: Caco-2 permeability assay; assay type: in vitro ADME
Description: (§1) Caco-2 permeability assay. To assay the permeability of test compounds by Caco-2 cell model, Caco-2 cells were cultured to confluency before being trypsinized and seeded onto filter transwell inserts at a density of 30,000 cells/well in DMEM medium. Cells were cultured in a humidified atmosphere with 5% CO2 at 37° C. After overnight attachment, cell medium was replaced with fresh medium at both apical and basolateral sides every other day. The cell monolayers are ready for the assay 20 days post seeding. […] The dosing solution at 10 μM was obtained by diluting 10 mM stock solution in HBSS medium (pH 7.4, 25 mM HEPES) freshly before the assay. Terfenadine (25 ng/mL) and Tolbutamide (50 ng/mL) were added into dosing solution as internal standards. […] The culture medium from either the basolateral side (plate B) or apical side (plate A) were aspirated and then rinsed with HBSS medium once. Afterwards, the dosing medium was added to either basolateral or apical side. Following the incubation, 100 microliter samples from both sides were harvested at time 0 and time 90 min. Samples were quenched with acetonitrile/methanol (1:1 v/v), centrifuged, and analyzed on a Shimadzu reversed-phase HPLC and Sciex API4500 Q trap instrument.
(§2) Permeability parameters were calculated using the following equations and shown in Table 10: Papp=(Conc.receiver,90 min*Volumereceiver)/(Time*Membrane Area*Conc.donor,0 min) Efflux Ratio=Papp[B to A]/Papp[A to B]

HeLa cells [1] = test: MTT assay, HeLa; assay type: cell-based; settings: MTT, 72 h
Description: (§3) MTT Proliferation Assay. HeLa, Jurkat-Lucia, or H441 cells were seeded into a 96-well microplate (5000 cells per well) in full growth media and incubated at 37° C. overnight. A serial dilution of each compound was prepared in DPBS and then added to each well. The treated cells were incubated at 37° C. with 5% CO2 for 72 h. Following compound treatment, 10 μL of MTT stock solution was added to each well. After an additional 4 h at 37° C., 100 μL of SDS-HCl solubilizing solution was added to each well and the plate was returned to the incubator overnight at 37° C. A Tecan Infinite M1000 Pro microplate reader was used the following morning to measure the absorbance of the formazan product at 565 nm.
Potential cytotoxicity of CNI101 (SEQ ID NO: 206) and CNI103 (SEQ ID NO: 208) was tested on HeLa cells by the MTT proliferation assay. HeLa cells were seeded into a 96-well microplate (5000 cells per well) in full growth media and incubated at 37° C. overnight. A serial dilution of each inhibitor was prepared in DPBS and then added to each well. The treated cells were incubated at 37° C. with 5% CO2 for 72 h. Following compound treatment, 10 μL of MTT stock solution was added to each well. After an additional 4 h at 37° C., 100 μL of SDS-HCl solubilizing solution was added to each well and the plate was returned to the incubator overnight at 37° C. A Tecan Infinite M1000 Pro microplate reader was used the following morning to measure the absorbance of the formazan product at 565 nm.

Jurkat cells = test: MTT assay, Jurkat; assay type: cell-based
Description: as §3

Calcineurin (GST-CN) = biological target: T1, Calcineurin (GST-CN) (Homo sapiens, UniProt Q08209); test: FA-based competition with FITC-labeled peptide 14 for binding to CN; settings: unlabeled; inhibition of binding of peptide 14 to CN
T1 construct: made in house; host or cells: E. coli BL21
T1 sequence (Q08209 2-347 limits assumed): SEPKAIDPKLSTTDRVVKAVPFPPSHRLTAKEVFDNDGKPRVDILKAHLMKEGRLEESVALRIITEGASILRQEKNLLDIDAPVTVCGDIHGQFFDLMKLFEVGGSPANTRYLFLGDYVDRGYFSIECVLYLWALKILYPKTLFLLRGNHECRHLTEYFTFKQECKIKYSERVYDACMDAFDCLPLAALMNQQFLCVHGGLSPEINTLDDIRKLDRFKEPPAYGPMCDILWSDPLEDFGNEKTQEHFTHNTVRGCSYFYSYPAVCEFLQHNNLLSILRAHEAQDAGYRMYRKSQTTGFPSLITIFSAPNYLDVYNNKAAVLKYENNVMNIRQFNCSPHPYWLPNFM
Description: Serial dilutions of competitor peptides were prepared in PBS with 0.01% Trition-X100 and then added to the incubation solution and equilibrated at RT with gentle mixing for 1 h. Samples were pipetted into 384-well black microplates and FP signal was measured using a TECAN Infinite M1000 plate reader and analyzed using GraphPad PRISM v.6.

[2] = test system: NFAT-mediated luciferase expression in Jurkat cells; test: NFAT luciferase assay in Jurkat cells; assay type: cell-based; settings: qualitative
Description: In a separate experiment, CNI93 was also tested against Jurkat cells expressing a luciferase gene under the transcriptional control of NFAT.
NFAT Luciferase Assay. Jurkat-Lucia cells maintained in RPMI-1640 supplemented with 10% FBS, 1% penicillin/streptomycin (v/v/v) and 100 μg/mL normocin were harvested after a passage with 50 μg/mL selective antibiotic Zeocin at 300×RCF for 5 min. Cells were resuspended in warm RPMI-1640 with antibiotics but without FBS to a final density of 2×10^6 cells/mL and seeded into white-on-white cell-culture treated 96-well plates. To each well was added 10 μL of DPBS containing compounds which dilute to the desired concentrations followed by 170 μL of cell suspension […] and incubated at 37° C. for 2 h. The cells were induced by treatment with 50 ng/mL PMA and 3 μg/mL ionomycin, Ca^2+ salt in FBS to achieve a final FBS concentration of 10% in each well (with FBS only as control). The plate was incubated for an additional 4 h at 37° C., when 20 μL of each sample was withdrawn and mixed with 50 μL of Quanti-Luc assay solution. The luminescence of the mixture was immediately measured on a Tecan Infinite M1000 plate reader.

Serum stability assay = assay type: in vitro ADME; settings: 37° C.
Description: Serum Stability Assay. Diluted human serum (25%) (H4522 human serum, Sigma) was centrifuged at 15,000 rpm for 10 min, and the supernatant was collected. A peptide stock solution was diluted into the supernatant to a final concentration of 5 μM and incubated at 37° C. At various time points (0-24 h), 200-μL aliquots were withdrawn and mixed with 100 μL of 15% trichloroacetic acid and incubated at 4° C. overnight. The final mixture was centrifuged at 15,000 rpm for 10 min in a microcentrifuge, and the supernatant was analyzed by reversed-phase HPLC equipped with a C18 column. The amount of remaining peptide (%) was determined by integrating the area underneath the peptide peak (monitored at 214 nm) and comparing with that from the peptide at time 0.

plasma protein = test: in vitro; assay type: in vitro ADME; set-up: dose or concentration left out as unconfirmed; settings: mouse, pH 7.4
Description: (§4) Plasma binding was assessed using mouse plasma obtained from in-life studies. CNI103 was diluted to […] in pre-warmed mouse plasma. The solution was added to the left chamber of a commercial plate based RED (rapid equilibrium dialysis) device. Isotonic sodium phosphate buffer (100 mM sodium phosphate, 100 mM sodium chloride, pH 7.4) was added to the outer chamber of the RED device and the plate was incubated at 37° C. for five hours. Aliquots of the buffer and the plasma were withdrawn before and after the incubation and the concentrations of free and bound test compound were determined by LC/MS/MS analysis. To test for plasma stability, the dosing solution was also incubated at 37° C. for 5 hours and the concentration of CNI103 was determined by LC/MS/MS analysis as described above.
(§5) The calculation of percentage binding is calculated using the following equations and the results are presented in Table 13: Binding %=(Cpe−Cb)/Cpe×100 • Cpe=Conc. of test compound in plasma at equilibrium • Cb=Conc. of test compound in buffer at equilibrium % Stability of test compound=(Conc. of stability sample/Conc. of time zero sample)×100 % Recovery=(Cpe+Cb)/Conc. of stability sample×100

in vitro = in vitro ADME; set-up: dose or concentration left out as unconfirmed; settings: mouse, plasma; for fraction unbound at 5 h: pH 7.4
Description: as §4, §5

[3] = Caco-2 permeability assay; assay type: in vitro ADME; settings: human, Caco-2, pH 7.4
Description: as §1, §2

HeLa cells [4] = settings: 100% = equal cargo concentration in cytosol and extracellular medium; cited from earlier work

Pgp Substrate (Caco-2 cell monolayers): Yes
Molecule: CC(C)CN(C[C@@H](O)[C@H](Cc1ccccc1)NC(=O)O[C@H]1CCOC1)S(=O)(=O)c1ccc(N)cc1 [Amprenavir, reference compound]

Molecule: CC[C@H](C)[C@H](NC(=O)[C@@H](NC(=O)c1cccc(Cl)c1Cl)C(C)(C)C)C(=O)N[C@H](C(=O)N[C@H](C(=O)N[C@H](C(=O)N[C@@H](CCC(N)=O)C(=O)N[C@@H](Cc1c[nH]cn1)C(=O)N[C@H](CC(C)C)C(=O)N[C@@H](CO)C(=O)NCCOCCOCC(=O)N[C@@H](CCCCNC(=O)CC[C@@H]1NC(=O)[C@@H](CCCNC(=N)N)NC(=O)[C@H](CCCNC(=N)N)NC(=O)[C@@H](CCCNC(=N)N)NC(=O)[C@H](CCCNC(=N)N)NC(=O)[C@H](Cc2ccc3ccccc3c2)NC(=O)[C@@H](Cc2ccccc2)NC1=O)C(N)=O)[C@@H](C)O)[C@@H](C)CC)C(C)(C)C [CNI95] (I: {Benzoyl(2,3-Cl2)}-[Tle]I[Tle]ITQH[dL]S[AEEA]K-NH2 / II: cyclo([2Nal]R[dR]R[dR]E[dF]); amide I:11-II:6 (inferred); ring closure inferred)
concentrations decreasing cell viability (HeLa cells [1]): ≥ 25 µM | concentrations decreasing cell viability (Jurkat cells): ≥ 25 µM | higher potency than CNI93 in FA-based competition assay (Calcineurin (GST-CN)): ~5 fold | attenuation of NFAT activity in Jurkat cells relative to CNI93 [2]: vastly superior | metabolised at 24 h, 5 μM (Serum stability assay; 25% human serum, 24 h, read-out: degradation in human serum): ~12%

recovery at 5 h (plasma protein): 73.3% | remaining at 5 h (in vitro): 73.8% | fraction unbound at 5 h (in vitro): 0.635
Molecule: CCOc1ccc(NC(C)=O)cc1 [Phenacetine]

Pgp Substrate (Caco-2 cell monolayers): No | Papp B→A at 90 min, 10 μM ([3]; N = 2, 10 μM, 90 min): 26 ×10⁻⁶ cm/s | efflux ratio at 90 min, 10 μM ([3]; Papp[B to A]/Papp[A to B]): 0.7
Molecule: CC(C)NCC(O)COc1cccc2ccccc12 (stereo not drawn) [Propranolol, reference compound]

recovery at 5 h (plasma protein): 102% | remaining at 5 h (in vitro): 107% | fraction unbound at 5 h (in vitro): 0.243
Molecule: C=C[C@H]1C[N@@]2CC[C@H]1C[C@@H]2[C@@H](O)c1ccnc2ccc(OC)cc12 [Quinidine]

recovery at 5 h (plasma protein): 103% | remaining at 5 h (in vitro): 101% | fraction unbound at 5 h (in vitro): 0.086
Molecule: CC(=O)CC(c1ccccc1)c1c(O)c2ccccc2oc1=O (stereo not drawn) [Warfarin]

Molecule: VIVIT: VIVIT (SEQ ID NO: 2) peptide, a CNBM blocking NFAT (Description: CN binding motif)
half-life in human serum (Serum stability assay): ~1 h | time to complete degradation in human serum (Serum stability assay): ≤ 6 h

Molecule: cyclic (fΦRrRrQ) (cyclo([dF][2Nal]R[dR]R[dR]Q); SMILES N=C(N)NCCC[C@@H]1NC(=O)[C@H](Cc2ccc3ccccc3c2)NC(=O)[C@@H](Cc2ccccc2)NC(=O)[C@H](CCC(N)=O)NC(=O)[C@@H](CCCNC(=N)N)NC(=O)[C@H](CCCNC(=N)N)NC(=O)[C@@H](CCCNC(=N)N)NC1=O) [CPP9]
absolute cytosolic delivery efficiency (HeLa cells [4]): 62%
